From US20090069215A1, “Acylated Single Chain Insulin” (Novo Nordisk A/S, priority 2006, published 2009)

target: human insulin receptor (Homo sapiens, UniProt P06213); experiment: Insulin receptor binding, SPA antibody capture assay (assay (I)); settings: recombinant human insulin receptor - exon 11, A14 Tyr[125I]-human insulin tracer, human insulin = 100%
Protocol: Insulin Receptor Binding of the Acylated, Single-Chain Insulin
The affinity of the acylated, single-chain insulins for the human insulin receptor can be determined by a SPA assay (Scintillation Proximity Assay) microtiterplate antibody capture assay. SPA-PVT antibody-binding beads, anti-mouse reagent (Amersham Biosciences, Cat No. PRNQ0017) are mixed with 25 ml of binding buffer (100 mM HEPES pH 7.8; 100 mM sodium chloride, 10 mM MgSO4, 0.025% Tween-20). Reagent mix for a single Packard Optiplate (Packard No. 6005190) is composed of 2.4 μl of a 1:5000 diluted purified recombinant human insulin receptor—exon 11, an amount of a stock solution of A14 Tyr[125I]-human insulin corresponding to 5000 cpm per 100 μl of reagent mix, 12 μl of a 1:1000 dilution of F12 antibody, 3 ml of SPA-beads and binding buffer to a total of 12 ml. A total of 100 μl is then added and a dilution series is made from appropriate samples. To the dilution series is then added 100 μl of reagent mix and the samples are incubated for 16 hours while gently shaken. The phases are then separated by centrifugation for 1 min and the plates counted in a Topcounter. The binding data are fitted using the nonlinear regression algorithm in the GraphPad Prism 2.01 (GraphPad Software, San Diego, Calif.).

Sequence of human insulin receptor (P06213 28-746 isoform P06213-2 limits assumed): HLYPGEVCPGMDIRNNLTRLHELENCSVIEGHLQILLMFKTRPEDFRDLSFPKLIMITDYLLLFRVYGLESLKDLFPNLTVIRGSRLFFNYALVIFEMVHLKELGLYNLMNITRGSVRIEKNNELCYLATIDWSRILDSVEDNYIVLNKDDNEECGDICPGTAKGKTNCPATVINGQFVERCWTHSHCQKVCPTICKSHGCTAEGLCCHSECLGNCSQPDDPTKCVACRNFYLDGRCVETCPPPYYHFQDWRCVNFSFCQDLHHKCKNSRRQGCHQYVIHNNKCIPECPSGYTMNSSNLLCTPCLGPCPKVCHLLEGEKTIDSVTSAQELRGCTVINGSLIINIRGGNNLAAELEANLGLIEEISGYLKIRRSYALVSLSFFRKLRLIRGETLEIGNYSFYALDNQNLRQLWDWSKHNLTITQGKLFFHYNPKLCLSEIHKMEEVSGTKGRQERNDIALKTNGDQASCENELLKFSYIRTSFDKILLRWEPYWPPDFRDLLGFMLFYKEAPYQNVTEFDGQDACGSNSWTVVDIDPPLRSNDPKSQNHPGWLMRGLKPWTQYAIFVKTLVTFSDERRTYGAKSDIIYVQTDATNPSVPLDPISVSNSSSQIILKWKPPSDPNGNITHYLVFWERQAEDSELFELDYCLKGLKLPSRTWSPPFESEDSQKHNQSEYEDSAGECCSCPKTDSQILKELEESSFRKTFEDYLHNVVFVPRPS
Sequence of human insulin receptor (P06213 763-1382 partner limits assumed): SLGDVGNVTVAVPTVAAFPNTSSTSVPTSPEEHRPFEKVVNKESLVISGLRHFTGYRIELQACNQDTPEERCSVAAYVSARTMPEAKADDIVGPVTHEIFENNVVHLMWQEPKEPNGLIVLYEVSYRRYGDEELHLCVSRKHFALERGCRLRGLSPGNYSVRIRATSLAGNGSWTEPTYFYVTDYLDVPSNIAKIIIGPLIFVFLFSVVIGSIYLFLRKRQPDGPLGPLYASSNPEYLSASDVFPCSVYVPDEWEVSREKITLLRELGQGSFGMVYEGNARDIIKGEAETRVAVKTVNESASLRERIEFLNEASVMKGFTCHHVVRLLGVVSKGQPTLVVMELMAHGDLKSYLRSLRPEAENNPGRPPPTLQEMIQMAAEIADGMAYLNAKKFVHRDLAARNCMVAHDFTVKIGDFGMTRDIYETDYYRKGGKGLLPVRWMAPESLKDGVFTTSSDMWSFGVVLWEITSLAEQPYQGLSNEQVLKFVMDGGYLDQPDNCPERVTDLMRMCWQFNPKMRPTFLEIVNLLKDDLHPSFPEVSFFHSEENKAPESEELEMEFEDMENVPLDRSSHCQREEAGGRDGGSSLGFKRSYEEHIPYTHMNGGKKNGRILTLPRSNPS

Substance | insulin receptor binding relative to that of human insulin [%]
B(1-29)-B22K((eps)hexadecandioyl-gGlu)-B29Q-TGLGSGR-A(1-21)-A18Q-A21G Human insulin [Example 5] | 154
B(1-29)-B22K((eps)myristoyl)-B29A-VGLSSGQ-A(1-21)-A18Q Human Insulin [Example 1] | 46
B(1-29)-B22K(N(eps)hexadecandioyl-g-L-Glu-amide)-B29H-TGLGSGR-A(1-21)-A18Q-A21G Human insulin [Example 6] | 105
B(1-29)-B22K(N(eps)heptadecandioyl)-B29H-TGLGSGR-A(1-21)-A18Q-A21G Human insulin [Example 7] | 119
B(1-29)-B22K(N(eps)octadecandioyl)-B29A-VGLSSGQ-A(1-21)-A18Q Human Insulin [Example 2] | 16
B(1-29)-B22K(N(eps)hexadecandioyl-gGlu)-B29A-VGLSSGQ-A(1-21)-A18Q Human Insulin [Example 3] | 64
B(1-29)-B22K((eps)hexadecandioyl-gGlu)-B29H-TGLGSGR-A(1-21)-A18Q-A21G Human insulin [Example 4] | 46
B(1-29)-B22K(N(eps)heptadecandioyl-g-L-Glu)-B29H-TGLGSGR-A(1-21)-A18Q-A21G Human insulin [Example 8] | 53

target: purified recombinant human insulin receptor-exon 11 (human) (UniProt P06213); experiment: assay (I): SPA competition, displacement of A14 Tyr[125I]-human insulin from recombinant human insulin receptor; reference human insulin; settings: not given
Sequence (P06213 other isoform, or with tags, fused parts or gaps limits assumed, form in doubt): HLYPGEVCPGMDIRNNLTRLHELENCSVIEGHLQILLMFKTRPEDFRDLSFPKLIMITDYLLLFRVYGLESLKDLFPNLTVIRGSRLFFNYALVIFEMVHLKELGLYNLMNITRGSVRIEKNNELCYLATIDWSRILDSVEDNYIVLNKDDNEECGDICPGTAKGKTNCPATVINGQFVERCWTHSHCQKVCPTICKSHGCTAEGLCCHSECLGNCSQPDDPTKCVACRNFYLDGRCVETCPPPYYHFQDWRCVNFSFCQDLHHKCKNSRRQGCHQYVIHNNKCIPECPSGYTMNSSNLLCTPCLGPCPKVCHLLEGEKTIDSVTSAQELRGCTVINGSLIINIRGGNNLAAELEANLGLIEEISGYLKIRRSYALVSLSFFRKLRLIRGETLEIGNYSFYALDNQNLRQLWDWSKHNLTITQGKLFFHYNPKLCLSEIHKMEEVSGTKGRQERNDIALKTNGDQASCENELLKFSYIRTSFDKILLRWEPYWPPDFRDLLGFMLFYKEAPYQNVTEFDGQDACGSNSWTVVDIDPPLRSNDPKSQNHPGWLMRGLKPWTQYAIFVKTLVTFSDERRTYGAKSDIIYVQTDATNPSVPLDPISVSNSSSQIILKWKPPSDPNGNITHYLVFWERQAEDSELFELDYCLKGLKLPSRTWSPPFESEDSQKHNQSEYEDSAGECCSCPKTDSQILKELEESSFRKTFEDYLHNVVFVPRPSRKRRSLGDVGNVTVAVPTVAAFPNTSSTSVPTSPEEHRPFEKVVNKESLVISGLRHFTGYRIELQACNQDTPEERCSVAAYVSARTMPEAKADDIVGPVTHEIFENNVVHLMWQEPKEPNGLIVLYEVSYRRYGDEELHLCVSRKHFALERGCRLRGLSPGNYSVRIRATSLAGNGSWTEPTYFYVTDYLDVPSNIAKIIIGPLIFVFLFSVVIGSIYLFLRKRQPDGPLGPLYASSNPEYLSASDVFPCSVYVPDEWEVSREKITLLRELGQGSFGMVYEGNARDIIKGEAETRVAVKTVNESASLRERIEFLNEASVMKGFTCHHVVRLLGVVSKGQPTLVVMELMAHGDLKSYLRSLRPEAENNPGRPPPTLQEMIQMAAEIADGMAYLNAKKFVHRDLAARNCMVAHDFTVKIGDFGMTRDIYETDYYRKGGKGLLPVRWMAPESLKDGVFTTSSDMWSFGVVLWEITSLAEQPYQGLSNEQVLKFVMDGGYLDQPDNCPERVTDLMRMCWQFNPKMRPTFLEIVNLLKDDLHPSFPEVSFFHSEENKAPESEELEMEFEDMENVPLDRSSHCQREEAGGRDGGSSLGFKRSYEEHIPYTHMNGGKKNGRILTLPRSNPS

insulin receptor binding relative to that of human insulin [%] | Substance
46 | B(1-29)-B22K((eps)hexadecandioyl-gGlu)-B29H-TGLGSGR-A(1-21)-A18Q-A21G Human insulin (from UniProt P01308 25-53; P01308 90-110) (ligand)
64 | B(1-29)-B22K(N(eps)hexadecandioyl-gGlu)-B29A-VGLSSGQ-A(1-21)-A18Q Human Insulin (from UniProt P01308 25-53; P01308 90-110) (ligand)
53 | B(1-29)-B22K(N(eps)heptadecandioyl-g-L-Glu)-B29H-TGLGSGR-A(1-21)-A18Q-A21G Human insulin (from UniProt P01308 25-53; P01308 90-110) (ligand)
105 | B(1-29)-B22K(N(eps)hexadecandioyl-g-L-Glu-amide)-B29H-TGLGSGR-A(1-21)-A18Q-A21G Human insulin (from UniProt P01308 25-53; P01308 90-110) (ligand)
119 | B(1-29)-B22K(N(eps)heptadecandioyl)-B29H-TGLGSGR-A(1-21)-A18Q-A21G Human insulin (from UniProt P01308 25-53; P01308 90-110) (ligand)
154 | B(1-29)-B22K((eps)hexadecandioyl-gGlu)-B29Q-TGLGSGR-A(1-21)-A18Q-A21G Human insulin (from UniProt P01308 25-53; P01308 90-110) (ligand)
16 | B(1-29)-B22K(N(eps)octadecandioyl)-B29A-VGLSSGQ-A(1-21)-A18Q Human Insulin (from UniProt P01308 25-53; P01308 90-110) (ligand)
46 | B(1-29)-B22K((eps)myristoyl)-B29A-VGLSSGQ-A(1-21)-A18Q Human Insulin (from UniProt P01308 25-53; P01308 90-110) (ligand)
